Experiment: Stability of Budesonide on storage, 21-aldehyde and Budesonide content by HPLC
Format: physicochemical
Settings: for Budenoside HPLC Area % / 21 Aldehyde HPLC Area %: double plastic containers
Experimental: The amount of air-sensitive steroid and/or its 21 aldehyde impurity were determined using HPLC. Common HPLC methods for these steroids and their 21-aldehyde impurities may be found in various monographs see for example for Budesonide and its 21-aldehyde impurity a HPLC method is reported in USP31-NF26, page 1565 (detection limit 0.02%), for Fluocinolone acetonide a HPLC method in European Pharmacopoeia (EP) 6.0, page 1915, and for Methylprednisolone a HPLC method in European Pharmacopoeia (EP) 6.0, page 2393.
Budenoside from three production lots prepared in stainless steel reactors was compared to a lot of Budenoside produced in such a reactor and purified with cysteine according to example 5. All samples were stored in double plastic containers. The samples that were not treated with cysteine were kept at a temperature of 25±2° C. and relative humidity of 60%. The sample treated with cysteine was stored at a temperature that varied from about 0° C. to about 40° C. with no humidity control. As is shown in the table below the amount of the 21-aldehyde impurity in the Budenoside purified according to example 5 is less than 0.07% even after 6 years of storage. The aldehyde content of all samples was measured by HPLC.

[1] = lot purified with cysteine, stored at about 0° C. to about 40° C., no humidity control, 6 years
[2] = production lot 1 of 3 (c1-c2), not treated with cysteine, 25±2° C., 60% relative humidity, 2 years
[3] = production lot 1 of 3 (c1-c2), not treated with cysteine, 25±2° C., 60% relative humidity, 5 years
[4] = production lot 2 of 3 (c3-c4), not treated with cysteine, 25±2° C., 60% relative humidity, 2 years
[5] = production lot 2 of 3 (c3-c4), not treated with cysteine, 25±2° C., 60% relative humidity, 5 years
[6] = production lot 3 of 3 (c5-c6), not treated with cysteine, 25±2° C., 60% relative humidity, 2 years
[7] = production lot 3 of 3 (c5-c6), not treated with cysteine, 25±2° C., 60% relative humidity, 5 years

For CCCC1O[C@@H]2C[C@H]3[C@@H]4CCC5=CC(=O)C=C[C@]5(C)[C@H]4[C@@H](O)C[C@]3(C)[C@]2(C(=O)CO)O1 (stereo partly shown) [Budesonide], which “amount of the 21-aldehyde impurity” value (after 6 years of storage at about 0° C. to about 40° C., no humidity control) is on record?
Its value is “less than 0.07%”.

What about the “Budenoside HPLC Area %” value (lot purified with cysteine, stored at about 0° C. to about 40° C., no humidity control, 0 years) of the same compound?
Its value is 99.76 HPLC Area %.

And the “21 Aldehyde HPLC Area %” value [1]?
The value was 0.02 HPLC Area %.

And the “Budenoside HPLC Area %” value [1]?
Its value is 99.61 HPLC Area %.

Which “Budenoside HPLC Area %” value (production lot 1 of 3 (c1-c2), not treated with cysteine, 25±2° C., 60% relative humidity, 0 years) does the source give for CCCC1O[C@@H]2C[C@H]3[C@@H]4CCC5=CC(=O)C=C[C@]5(C)[C@H]4[C@@H](O)C[C@]3(C)[C@]2(C(=O)CO)O1 (stereo partly shown) [Budenoside, Budesonide] here?
The value was 99.0 HPLC Area %.

What about the “Budenoside HPLC Area %” value (production lot 1 of 3 (c1-c2), not treated with cysteine, 25±2° C., 60% relative humidity, 1 year) of the same compound?
Its value is 98.8 HPLC Area %.

What about the “21 Aldehyde HPLC Area %” value [2] of the same compound?
Its value is 0.1 HPLC Area %.

And the “Budenoside HPLC Area %” value [2]?
The value was 98.7 HPLC Area %.

And the “21 Aldehyde HPLC Area %” value [3]?
Its value is 0.2 HPLC Area %.

What about the “Budenoside HPLC Area %” value [3] of the same compound?
Its value is 98.4 HPLC Area %.

And the “Budenoside HPLC Area %” value (production lot 2 of 3 (c3-c4), not treated with cysteine, 25±2° C., 60% relative humidity, 0 years)?
Its value is 99.4 HPLC Area %.

What about the “Budenoside HPLC Area %” value (production lot 2 of 3 (c3-c4), not treated with cysteine, 25±2° C., 60% relative humidity, 1 year) of the same compound?
The value was 98.9 HPLC Area %.

And the “21 Aldehyde HPLC Area %” value [4]?
The value was 0.6 HPLC Area %.

What about the “Budenoside HPLC Area %” value [4] of the same compound?
The value was 98.5 HPLC Area %.

What about the “21 Aldehyde HPLC Area %” value [5] of the same compound?
Its value is 0.9 HPLC Area %.

And the “Budenoside HPLC Area %” value [5]?
The value was 97.8 HPLC Area %.

And the “Budenoside HPLC Area %” value (production lot 3 of 3 (c5-c6), not treated with cysteine, 25±2° C., 60% relative humidity, 0 years)?
The value was 99.2 HPLC Area %.

What about the “Budenoside HPLC Area %” value (production lot 3 of 3 (c5-c6), not treated with cysteine, 25±2° C., 60% relative humidity, 1 year) of the same compound?
Its value is 99.0 HPLC Area %.

And the “21 Aldehyde HPLC Area %” value [6]?
Its value is under 0.1 HPLC Area %.

What about the “Budenoside HPLC Area %” value [6] of the same compound?
The value was 99.1 HPLC Area %.

And the “21 Aldehyde HPLC Area %” value [7]?
The value was under 0.2 HPLC Area %.

And the “Budenoside HPLC Area %” value [7]?
The value was 98.2 HPLC Area %.

Source: US20090240049A1, “Purification of air sensitive steroids” (priority 2008, published 2009)
